Assay results as given in PMC9599461, “Stereoselectivity in the Membrane Transport of Phenylethylamine Derivatives by Human Monoamine Transporters and Organic Cation Transporters 1, 2, and 3” (Biomolecules, 2022).

Experiments:
OCT2 = biological target: T1, OCT2 (Homo sapiens, UniProt O15244); assay: Stereoselective uptake into OCT2 (wild-type)-overexpressing HEK293 cells; settings: OCT2; for Clint ± SEM: quotient of vmax over Km; for selectivity ratio at 2 min: human, ratio between enantiomers
T1 sequence (O15244 1-555 S270A): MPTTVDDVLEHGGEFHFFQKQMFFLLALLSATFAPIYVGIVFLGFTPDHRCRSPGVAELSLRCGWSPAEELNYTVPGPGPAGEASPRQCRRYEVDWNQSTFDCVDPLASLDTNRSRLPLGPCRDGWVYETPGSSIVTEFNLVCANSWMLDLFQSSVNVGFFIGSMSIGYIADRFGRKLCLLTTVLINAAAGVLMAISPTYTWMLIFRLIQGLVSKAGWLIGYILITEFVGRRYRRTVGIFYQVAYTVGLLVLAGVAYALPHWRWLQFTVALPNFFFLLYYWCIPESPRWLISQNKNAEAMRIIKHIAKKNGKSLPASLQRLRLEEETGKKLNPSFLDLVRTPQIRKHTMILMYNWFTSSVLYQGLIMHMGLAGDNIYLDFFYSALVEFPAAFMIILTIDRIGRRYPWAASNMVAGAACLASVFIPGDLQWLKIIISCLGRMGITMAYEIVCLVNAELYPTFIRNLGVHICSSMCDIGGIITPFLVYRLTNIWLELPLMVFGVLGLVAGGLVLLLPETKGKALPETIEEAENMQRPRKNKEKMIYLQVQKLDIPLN

SERT = SERT (Homo sapiens, UniProt P31645); assay: Stereoselective uptake into SERT-overexpressing HEK293 cells; settings: for Clint ± SEM / Stereoselectivity Vmax / Stereoselectivity Km: SERT; for Clint ± SEM: quotient of vmax over Km; for Stereoselectivity Vmax / Stereoselectivity Km: ratio between enantiomers; for Stereoselectivity Vmax: given as for (R) or for 1; for Stereoselectivity Km: given as for (R) or for 1 (first-eluting); for selectivity ratio at 2 min: human, HEK293 cells stably overexpressing human SERT;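 on all read-outs here: uptake into HEK293 cells stably expressing human SERT over 2 min, enantiomers measured in cell lysate by chiral HPLC-MS/MS, normalized to total protein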
NET = NET (Homo sapiens, UniProt P23975); assay: Stereoselective uptake into NET-overexpressing HEK293 cells; settings: for Clint ± SEM / Stereoselectivity Vmax / Stereoselectivity Km: NET; for Clint ± SEM: quotient of vmax over Km; for Stereoselectivity Vmax / Stereoselectivity Km: ratio between enantiomers; for Stereoselectivity Vmax: given as for (R) or for 1; for Stereoselectivity Km: given as for (R) or for 1 (first-eluting); for selectivity ratio at 2 min: human, HEK293 cells stably overexpressing human NET;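 on all read-outs here: intracellular enantiomers quantified in cell lysates by chiral HPLC-MS/MS after a 2 min substrate incubation, with uptake normalized to total cellular protein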
OCT1 = biological target: T2, OCT1 (Homo sapiens, UniProt O15245); assay: Stereoselective uptake into OCT1-overexpressing HEK293 cells; settings: OCT1; for Clint ± SEM: quotient of vmax over Km; for selectivity ratio at 2 min: human, ratio between enantiomers;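 on all read-outs here: enantiomers quantified inside cells by chiral HPLC-MS/MS, uptake normalized to total protein from bicinchoninic acid assay, substrates applied in HBSS+ buffer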
T2 sequence (O15245 1-554): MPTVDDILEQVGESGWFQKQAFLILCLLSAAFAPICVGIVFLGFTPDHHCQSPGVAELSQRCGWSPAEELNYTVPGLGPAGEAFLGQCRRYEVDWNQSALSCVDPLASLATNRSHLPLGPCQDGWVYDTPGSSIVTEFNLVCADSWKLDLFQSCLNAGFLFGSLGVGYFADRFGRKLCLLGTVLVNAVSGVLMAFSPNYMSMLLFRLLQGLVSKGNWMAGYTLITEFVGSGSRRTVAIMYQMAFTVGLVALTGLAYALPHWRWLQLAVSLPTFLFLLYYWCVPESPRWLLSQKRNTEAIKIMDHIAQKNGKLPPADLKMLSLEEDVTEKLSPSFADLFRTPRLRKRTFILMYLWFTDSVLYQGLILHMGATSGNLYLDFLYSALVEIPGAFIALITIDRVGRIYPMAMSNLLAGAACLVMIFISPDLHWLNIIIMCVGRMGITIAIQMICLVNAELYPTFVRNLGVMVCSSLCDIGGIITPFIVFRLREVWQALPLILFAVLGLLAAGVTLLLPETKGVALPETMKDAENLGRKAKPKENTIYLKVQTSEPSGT
Description: (§1) All transport experiments were carried out in HEK293 cells stably overexpressing human MATs or OCTs. […] All cells were regularly cultivated in DMEM supplemented with 10% (v/v) FCS, penicillin (100 U/mL) and streptomycin (100 μg/mL)and kept in culture for no longer than 30 passages.
(§2) For the uptake experiments, 300,000 cells were plated in poly-D-lysine precoated 24-well plates 48 h ahead of the transport experiment. On the day of experiment, cells were initially washed once with 37 °C pre-warmed HBSS+ (Hanks buffered salt solution supplemented with 10 mM HEPES) and subsequently incubated with the substrates dissolved in pre-warmed HBSS+ for exactly two minutes. Incubation was stopped by adding ice-cold HBSS+ followed by two washing steps. After this, cells were lysed with 80% acetonitrile containing 10 ng/mL milnacipran as internal standard for high-performance liquid chromatography coupled to tandem mass spectrometry (HPLC-MS/MS) analysis. For every experiment, two additional wells per cell line were lysed using RIPA buffer for protein quantification. Total protein was quantified using the bicinchoninic acid assay [42]. This was later used for normalization of the uptake data.
(§3) Intracellularly accumulated test substances were quantified by HPLC-MS/MS analysis using a Shimadzu Nexera HPLC system with a SIL-30AC autosampler, a CTO-20AC column oven, a LC-30AD pump, and a CBM-20A controller (Shimadzu, Kyoto, Japan). Stereoselective chromatography was carried out on a [sequence] CBH HPLC column (100 × 3 mm inner dimension with 5 μM particle size; Sigma-Aldrich, Darmstadt, Germany) with a corresponding 10 × 3 mm guard column. Reversed phased chromatography was carried out using an ammonium acetate (NH4Ac) buffered aqueous mobile phase with isopropyl alcohol (IPA) as organic solvent. […] The order of elution of the enantiomers was obtained from available reference literature [43] or by applying enantiopure reference compounds to the chiral HPLC. […] Given the structural similarity of the investigated substances and the fact that separation was performed on the same column with almost identical mobile phases, we assume that this order of elution for our compound set is always the (R)- before the (S)-enantiomer.
(§4) Detection was performed with an API 4000 tandem mass spectrometer (AB SCIEX, Darmstadt, Germany) operating in multiple-reaction-monitoring mode. Quantification was performed using the Analyst 1.6.2 software (AB SCIEX, Darmstadt, Germany) and quantified by comparison to standard curves with known concentrations.
(§5) All uptake data were normalized to protein content to account for variation in the number of seeded sells. Transporter-mediated net uptake was calculated by subtracting uptake into empty vector-transfected control cells from uptake into transporter-transfected cells. Kinetic parameters were then determined after non-linear regression following the Michaelis–Menten equation (v = vmax × [S]/(Km + [S])) using GraphPad Prism (Version 5.01 for Windows, GraphPad Software, La Jolla, CA, USA). Vmax refers to the maximum transport velocity and Km is defined as the substance concentration required to reach half of vmax. The intrinsic clearance Clint was calculated as the quotient of vmax over Km.

[1] = system: OCT2 wild-type versus A270S variant; assay: Stereoselective uptake into OCT2 A270S variant-overexpressing HEK293 cells; settings: human;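 further: uptake into HEK293 cells stably overexpressing human OCT2 variants, intracellular enantiomers quantified by chiral HPLC-MS/MS and normalized to total protein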
OCT3 = biological target: T3, OCT3 (Homo sapiens, UniProt O75751); assay: Stereoselective uptake into OCT3-overexpressing HEK293 cells; settings: for Clint ± SEM / Stereoselectivity Vmax: OCT3; for Clint ± SEM: quotient of vmax over Km; for Stereoselectivity Vmax: ratio between enantiomers, given as for (S) or for 2; for selectivity ratio at 2 min: human, HEK293 cells stably overexpressing human OCT3;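 on all read-outs here: intracellular accumulation in HEK293 cells measured by chiral HPLC-MS/MS after a 2 min substrate exposure at 37 °C, uptake normalized to total protein (bicinchoninic acid assay)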
T3 sequence (O75751 1-556): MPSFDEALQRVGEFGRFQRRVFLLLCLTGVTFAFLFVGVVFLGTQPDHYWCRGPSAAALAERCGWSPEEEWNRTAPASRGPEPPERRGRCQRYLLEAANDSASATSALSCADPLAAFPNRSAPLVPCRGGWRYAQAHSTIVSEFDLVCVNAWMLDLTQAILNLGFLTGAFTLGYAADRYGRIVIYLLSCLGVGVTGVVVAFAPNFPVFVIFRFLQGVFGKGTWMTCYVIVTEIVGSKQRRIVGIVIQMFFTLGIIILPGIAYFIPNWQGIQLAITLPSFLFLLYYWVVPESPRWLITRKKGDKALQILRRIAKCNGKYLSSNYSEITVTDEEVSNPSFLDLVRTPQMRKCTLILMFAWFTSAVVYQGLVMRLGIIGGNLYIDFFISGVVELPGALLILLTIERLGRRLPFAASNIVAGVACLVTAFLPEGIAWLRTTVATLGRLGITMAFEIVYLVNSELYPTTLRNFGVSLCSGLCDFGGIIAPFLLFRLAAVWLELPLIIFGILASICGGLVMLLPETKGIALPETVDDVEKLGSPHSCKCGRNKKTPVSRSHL
Description: as §1, §2, §3, §4, §5

DAT = DAT (Homo sapiens, UniProt Q01959); assay: Stereoselective uptake into DAT-overexpressing HEK293 cells; settings: for Clint ± SEM / Stereoselectivity Vmax / Stereoselectivity Km: DAT; for Clint ± SEM: quotient of vmax over Km; for Stereoselectivity Vmax / Stereoselectivity Km: ratio between enantiomers; for Stereoselectivity Vmax: given as for (R) or for 1; for Stereoselectivity Km: given as for (R) or for 1 (first-eluting); for selectivity ratio at 2 min: human, HEK293 cells stably overexpressing human DAT;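 on all read-outs here: intracellular accumulation measured by chiral HPLC-MS/MS in stably transfected HEK293 cells, normalized to total protein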
OCT2 (wild-type) = biological target: T4, OCT2 (wild-type) (Homo sapiens, UniProt O15244); assay: Stereoselective uptake into OCT2 (wild-type)-overexpressing HEK293 cells; settings: human, Stereoselectivity OCT2_WT, 100 μM racemic substance, two minutes; uptake ratio of enantiomers, given as for (S)
T4 sequence (O15244 1-555 S270A): T1 sequence (O15244 1-555 S270A)

OCT2 A270S variant = assay: in vitro; settings: human, Stereoselectivity OCT2_A270S, 100 μM racemic substance, two minutes; uptake ratio of enantiomers, given as for (S)
[2] = system: human neuroblastoma cells; design: method as in PMID 9085193; settings: cited from earlier work
[3] = HEK293 cells stably overexpressing human wild-type OCT2, Stereoselectivity ClInt, given as for (R) or for 1
[4] = HEK293 cells stably overexpressing human wild-type OCT2, Stereoselectivity Km, given as for (R) or for 1 (first-eluting)
[5] = HEK293 cells stably overexpressing human wild-type OCT2, Stereoselectivity Vmax, given as for (R) or for 1
[6] = HEK293 cells stably overexpressing human OCT1, Stereoselectivity ClInt, given as for (R) or for 1 (also 1.00-fold for 1/2)
[7] = HEK293 cells stably overexpressing human OCT1, Stereoselectivity Km, given as for (R) or for 1 (first-eluting)
[8] = HEK293 cells stably overexpressing human OCT1, Stereoselectivity Vmax, given as for (R) or for 1

SERT, sequence (P31645 whole entry): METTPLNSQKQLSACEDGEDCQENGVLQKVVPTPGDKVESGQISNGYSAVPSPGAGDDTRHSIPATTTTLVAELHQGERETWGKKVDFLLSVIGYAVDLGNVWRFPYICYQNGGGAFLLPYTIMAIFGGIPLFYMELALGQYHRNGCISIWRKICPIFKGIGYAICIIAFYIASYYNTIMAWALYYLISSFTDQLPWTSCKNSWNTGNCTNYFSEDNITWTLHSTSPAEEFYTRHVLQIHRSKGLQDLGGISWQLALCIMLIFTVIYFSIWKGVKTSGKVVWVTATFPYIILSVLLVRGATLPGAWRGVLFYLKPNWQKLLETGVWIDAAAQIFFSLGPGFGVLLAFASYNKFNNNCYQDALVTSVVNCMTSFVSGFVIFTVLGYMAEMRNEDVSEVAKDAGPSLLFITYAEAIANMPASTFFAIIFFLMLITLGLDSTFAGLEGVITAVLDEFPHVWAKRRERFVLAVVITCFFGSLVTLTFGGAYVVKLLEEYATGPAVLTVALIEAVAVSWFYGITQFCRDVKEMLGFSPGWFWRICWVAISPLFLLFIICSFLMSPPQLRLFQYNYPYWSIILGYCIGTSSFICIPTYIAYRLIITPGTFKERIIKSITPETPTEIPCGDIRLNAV
DAT, sequence (Q01959 whole entry): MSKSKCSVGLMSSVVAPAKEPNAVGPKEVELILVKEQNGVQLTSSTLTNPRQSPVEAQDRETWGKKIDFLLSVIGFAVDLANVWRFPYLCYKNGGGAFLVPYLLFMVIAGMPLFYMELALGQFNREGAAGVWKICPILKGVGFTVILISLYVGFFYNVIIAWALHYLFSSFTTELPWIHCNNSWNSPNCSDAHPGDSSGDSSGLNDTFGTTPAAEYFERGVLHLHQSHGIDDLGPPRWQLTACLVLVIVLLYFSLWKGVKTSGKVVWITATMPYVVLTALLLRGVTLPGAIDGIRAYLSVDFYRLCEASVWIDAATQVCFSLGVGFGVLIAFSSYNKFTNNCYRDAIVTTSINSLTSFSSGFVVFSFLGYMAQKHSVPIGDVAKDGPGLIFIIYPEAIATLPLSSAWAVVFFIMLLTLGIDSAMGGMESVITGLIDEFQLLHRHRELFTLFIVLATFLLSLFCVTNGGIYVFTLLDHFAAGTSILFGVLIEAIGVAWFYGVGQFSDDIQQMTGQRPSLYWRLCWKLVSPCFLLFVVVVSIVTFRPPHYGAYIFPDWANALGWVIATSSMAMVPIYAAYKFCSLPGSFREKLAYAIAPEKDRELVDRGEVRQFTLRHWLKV
NET, sequence (P23975 whole entry): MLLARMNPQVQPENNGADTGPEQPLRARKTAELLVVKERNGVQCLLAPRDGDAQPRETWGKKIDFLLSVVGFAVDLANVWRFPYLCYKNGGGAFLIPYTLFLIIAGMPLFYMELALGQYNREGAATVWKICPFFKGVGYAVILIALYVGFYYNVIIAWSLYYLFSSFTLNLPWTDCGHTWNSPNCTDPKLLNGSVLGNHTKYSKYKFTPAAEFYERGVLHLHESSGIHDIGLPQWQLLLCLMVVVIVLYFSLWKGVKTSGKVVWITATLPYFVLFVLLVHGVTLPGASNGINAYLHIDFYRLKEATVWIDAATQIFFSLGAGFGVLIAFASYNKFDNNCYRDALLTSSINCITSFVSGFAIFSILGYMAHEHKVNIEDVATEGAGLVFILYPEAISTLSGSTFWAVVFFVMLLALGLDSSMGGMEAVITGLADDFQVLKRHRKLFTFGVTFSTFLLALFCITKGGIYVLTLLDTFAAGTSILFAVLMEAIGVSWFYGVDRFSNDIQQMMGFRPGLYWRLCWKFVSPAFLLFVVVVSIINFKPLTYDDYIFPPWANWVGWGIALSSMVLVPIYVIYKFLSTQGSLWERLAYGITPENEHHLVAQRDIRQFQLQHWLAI

SMILES	Clint ± SEM (OCT2)	selectivity ratio at 2 min (OCT2; [3])	selectivity ratio at 2 min (OCT2; [4])	selectivity ratio at 2 min (OCT2; [5])	Clint ± SEM (SERT)	Stereoselectivity Vmax (SERT) [fold]	Stereoselectivity Km (SERT) [fold]	selectivity ratio at 2 min (SERT)	Clint ± SEM (NET)	Stereoselectivity Vmax (NET) [fold]	Stereoselectivity Km (NET) [fold]	selectivity ratio at 2 min (NET)	Clint ± SEM (OCT1)	selectivity ratio at 2 min (OCT1; [6])	selectivity ratio at 2 min (OCT1; [7])	selectivity ratio at 2 min (OCT1; [8])	selectivity ratio at 2 min, 100 μM [1]	Clint ± SEM (OCT3)	Stereoselectivity Vmax (OCT3) [fold]	selectivity ratio at 2 min (OCT3)	other results
NC[C@H](O)c1ccc(O)cc1 [(R)-Octopamine]	39.6 mL × g Protein^−1 × min^−1	1.31	1.63	2.14	4.14 mL × g Protein^−1 × min^−1	2.38	1.39	1.71	166 mL × g Protein^−1 × min^−1	1.30	1.55	1.19	4.53 mL × g Protein^−1 × min^−1	1.05	1.04	1.09	1.2	38.8 mL × g Protein^−1 × min^−1	1.10	1.38	Clint ± SEM (DAT): 100 mL × g Protein^−1 × min^−1; Stereoselectivity Vmax (DAT): 1.05 fold; Stereoselectivity Km (DAT): 1.05 fold; selectivity ratio at 2 min (DAT): 1
CC1NCCc2cc(O)c(O)cc21 (stereo not drawn) [Salsolinol]																					selectivity ratio at 2 min, 100 μM (OCT2 (wild-type)): 1.06; selectivity ratio at 2 min, 100 μM (OCT2 A270S variant): 1.1; Cytotoxicity of (S)-enantiomer versus (R)-enantiomer [2]: almost two-fold higher
NC[C@@H](O)c1ccc(O)cc1 [(S)-Octopamine]	30.2 mL × g Protein^−1 × min^−1	1.31	1.63	2.14	2.42 mL × g Protein^−1 × min^−1	2.38	1.39	1.71	198 mL × g Protein^−1 × min^−1	1.30	1.55	1.19	4.32 mL × g Protein^−1 × min^−1	1.05	1.04	1.09	1.17	53.4 mL × g Protein^−1 × min^−1	1.10	1.38	Clint ± SEM (DAT): 100 mL × g Protein^−1 × min^−1; Stereoselectivity Vmax (DAT): 1.05 fold; Stereoselectivity Km (DAT): 1.05 fold; selectivity ratio at 2 min (DAT): 1
